Results taken from publication PMC11645656, “MRGPRX4 mediates phospho-drug associated pruritus in a humanized mouse model” (Science translational medicine, 2024).
“And” between values parts separate entries of the source, which are not always exact repeats. Equal entries are not always repeated.

What was measured:
MRGPRX4 R95A = target: T1, MRGPRX4 R95A (Homo sapiens, UniProt Q96LA9, L83S/R95A); experiment: Calcium mobilization assay (FLIPR), MRGPRX4 R95A mutant; type: cell-based
T1 construct: expressed in transfected cells; host or cells: HEK293T, transient
T1 sequence (Q96LA9 whole entry L83S/R95A): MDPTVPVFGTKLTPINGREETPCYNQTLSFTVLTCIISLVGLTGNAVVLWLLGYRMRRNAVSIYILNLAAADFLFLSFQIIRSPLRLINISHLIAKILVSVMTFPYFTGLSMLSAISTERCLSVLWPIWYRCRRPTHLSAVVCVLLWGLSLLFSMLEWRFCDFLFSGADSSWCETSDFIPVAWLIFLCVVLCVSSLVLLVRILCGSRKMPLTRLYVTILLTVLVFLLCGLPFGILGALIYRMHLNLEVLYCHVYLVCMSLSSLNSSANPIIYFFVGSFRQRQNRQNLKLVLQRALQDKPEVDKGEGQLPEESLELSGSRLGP
From the text: (§1) Fig. 3. […] (A) Cryo-EM density map of MRGPRX4-Gq in complex with fospropofol. (B) The density map of fospropofol and R82 of MRGPRX4. (C and D) Key molecular interactions between fospropofol and the hydrophilic (C) and hydrophobic (D) part of the agonist binding pocket of MRGPRX4. Amino acid residues interacting with fospropofol are shown as sticks. Hydrogen bond is shown as cyan dashed lines. […] Data are from at least three independent experiments, each performed in triplicate, and reported as the mean ± SEM. (E) and (F) were collected from the same sets of experiments.
(§2) To generate murine Mrgprs expressing cells, HEK293T cells (ATCC) were seeded on poly-D-lysine coated 96 well plate at 25,000 cells per well one day prior to transfection. HEK293T cells were transiently co-transfected with the mammalian expression plasmids carrying cDNA encoding the murine Mrgpr genes and plasmid inserted with cDNA encoding murine α-subunit of the heterotrimeric G15 protein (Gα15) in triplicates using Lipofectamine LTX reagents (Thermo Scientific). To generate WT, S83L, and alanine mutant MRGPRX4-expressing cells, HEK293T cells were seeded on poly-D-lysine coated 384 well plate at 12,000 cells per well one day prior to transfection. […]

MRGPRX4 Y254A = target: T2, MRGPRX4 Y254A (Homo sapiens, UniProt Q96LA9, L83S/Y254A); experiment: Calcium mobilization assay (FLIPR), MRGPRX4 Y254A mutant; type: cell-based; conditions: for Calcium mobilization response, dose-response replicate data (Fig. 3E and 3F): Y254A
T2 construct: expressed in transfected cells; host or cells: HEK293T, transient
T2 sequence (Q96LA9 whole entry L83S/Y254A): as the sequence (Q96LA9 whole entry L83S/R95A) above, with A95R, Y254A counted along it
From the text: as §1
(§3) To generate murine Mrgprs expressing cells, HEK293T cells (ATCC) were seeded on poly-D-lysine coated 96 well plate at 25,000 cells per well one day prior to transfection. HEK293T cells were transiently co-transfected with the mammalian expression plasmids carrying cDNA encoding the murine Mrgpr genes and plasmid inserted with cDNA encoding murine α-subunit of the heterotrimeric G15 protein (Gα15) in triplicates using Lipofectamine LTX reagents (Thermo Scientific). To generate WT, S83L, and alanine mutant MRGPRX4-expressing cells, HEK293T cells were seeded on poly-D-lysine coated 384 well plate at 12,000 cells per well one day prior to transfection. Mammalian expression plasmids pLX304 (vector from Addgene) carrying different MRGPRX4 coding sequences were transiently transfected into HEK293T cells in triplicates with Lipofectamine LTX reagents (Thermo Scientific). Intracellular calcium mobilization assays were performed after one day of transfection. Murine Mrgprs tested include Mrgpra1, Mrgpra2a, Mrgpra2b, Mrgpra3, Mrgpra4, Mrgpra6, Mrgpra9, Mrgpra10, Mrgpra11, Mrgpra12, Mrgpra14, Mrgprb5, Mrgprb6, Mrgprb10, Mrgprb11, and Mrgprc11. WT and mutant MRGPRX4 constructs tested include WT, S83L, R82A, R86A, R95A, W158A, Y250A, and Y254A.
(§4) To generate MRGPRX4 mutant constructs, site-directed mutagenesis was performed using Q5® Site-Directed Mutagenesis Kit (New England Biolabs). The primers were designed by the NEBaseChanger tool, with forward primers spanning designated mutated sequence corresponding to the desired amino acid substitutions. The plasmids with WT MRGPRX4 sequence served as the templates for polymerase chain reaction (PCR) amplification with Q5 high-fidelity polymerase and respective primer pairs according to the manufacturer’s conditions. Then, the linear PCR products underwent phosphorylation, ligation, and simultaneous degradation of template DNA by incubating them with a KLD enzyme mix consisting of T4 polynucleotide kinase, T4 DNA ligase, and DpnI at room temperature for 5 min. Subsequently, the mutated circular plasmids were transformed into NEB 5-alpha competent E. coli by heat-shock method, and the successfully transformed bacteria were selected on LB plates with selection antibiotics. The next day, the transformant colonies were picked, expanded in LB broth containing selection antibiotics overnight. Plasmids were isolated using QIAprep Spin Miniprep Kit (Qiagen) and subjected to sequencing to confirm the mutation.

MRGPRX4 W158A = target: T3, MRGPRX4 W158A (Homo sapiens, UniProt Q96LA9, L83S/W158A); experiment: Calcium mobilization assay (FLIPR), MRGPRX4 W158A mutant; type: cell-based; conditions: for calcium mobilization response (Fig. 3E and 3F dose-response): W158A
T3 construct: expressed in transfected cells; host or cells: HEK293T, transient
T3 sequence (Q96LA9 whole entry L83S/W158A): as the sequence (Q96LA9 whole entry L83S/R95A) above, with A95R, W158A counted along it
From the text: as §1, §3, §4

MRGPRX4 R86A = target: T4, MRGPRX4 R86A (Homo sapiens, UniProt Q96LA9, L83S/R86A); experiment: Calcium mobilization assay (FLIPR), MRGPRX4 R86A mutant; type: cell-based
T4 construct: expressed in transfected cells; host or cells: HEK293T, transient
T4 sequence (Q96LA9 whole entry L83S/R86A): as the sequence (Q96LA9 whole entry L83S/R95A) above, with R86A, A95R counted along it
From the text: as §1, §2

MRGPRX4 R82A = target: T5, MRGPRX4 R82A (Homo sapiens, UniProt Q96LA9, L83S/R82A); experiment: Calcium mobilization assay (FLIPR), MRGPRX4 R82A mutant; type: cell-based
T5 construct: expressed in transfected cells; host or cells: HEK293T, transient
T5 sequence (Q96LA9 whole entry R82A/L83S): as the sequence (Q96LA9 whole entry L83S/R95A) above, with R82A, A95R counted along it
From the text: as §1, §2

WT mice = experiment: Itch behavioral study in WT mice across concentrations (fig. S4)
Protocol: Experimenters and subjects scoring the recorded videos were both blind to the mouse genotype and tested compounds. Behavioral tests comparing NP2-WT and NP2-X4+ scratching behavior were 6–12weeks old littermates including both genders. In brief, on the day preceding the experiment, animals were acclimated to the test chamber for at least 30 min and the experimenters performed mock injections 1–2 times in between. On the day of experiments, animals were habituated in test chambers for 10 min before receiving subcutaneous injection of 50ul compounds. Videos were recorded for 30 min after the injection. A bout of scratching was defined as a sustained scratching movement initiated by hindpaws toward the injection site (until the pause of the movement / withdrawal of the hindpaw). Scratching bouts were quantified within the 30 min record sessions.

MRGPRX4 Y250A = target: T6, MRGPRX4 Y250A (Homo sapiens, UniProt Q96LA9, L83S/Y250A); experiment: Calcium mobilization assay (FLIPR), MRGPRX4 Y250A mutant; type: cell-based
T6 construct: expressed in transfected cells; host or cells: HEK293T, transient
T6 sequence (Q96LA9 whole entry L83S/Y250A): as the sequence (Q96LA9 whole entry L83S/R95A) above, with A95R, Y250A counted along it
From the text: as §1, §2

[1] = 1 mM subcutaneous nape injection
[2] = 10 mM subcutaneous nape injection

| Compound | Calcium mobilization response at alanine mutant R95A vs WT (MRGPRX4 R95A) | Calcium mobilization response at alanine mutant Y254A vs WT (MRGPRX4 Y254A) | Calcium mobilization response at alanine mutant W158A vs WT (MRGPRX4 W158A) | Calcium mobilization response at alanine mutant R86A vs WT (MRGPRX4 R86A) | Calcium mobilization response at alanine mutant R82A vs WT (MRGPRX4 R82A) | Scratching bouts (each well represents individual mouse) (WT mice; [1]) | Scratching bouts (each well represents individual mouse) (WT mice; [2]) | Calcium mobilization response at alanine mutant Y250A vs WT (MRGPRX4 Y250A) | further results |
| --- | --- | --- | --- | --- | --- | --- | --- | --- | --- |
| O=C1NC(c2ccccc2)(c2ccccc2)C(=O)N1COP(=O)(O)O [Fosphenytoin] | either greatly attenuated or abolished | disrupted calcium mobilization | disrupted calcium mobilization | either greatly attenuated or abolished | either greatly attenuated or abolished | 0 (2×) and 16 (2×) and 11 and 26 | 3 and 4 and 1 and 0 and 26 | disrupted calcium mobilization | Calcium mobilization response, dose-response replicate data (Fig. 3E and 3F) (MRGPRX4 Y254A; concentration 188 pM): 6.602 and -1.3205 and -9.574 and 20.2858 and 13.0936 and 9.774 and -0.7431 and 13.747; Calcium mobilization response, dose-response replicate data (Fig. 3E and 3F) (MRGPRX4 Y254A; concentration 565 pM): 20.4677 and 20.7978 and 5.942 and 10.3273 and 0.3688 and 21.3924 and 9.2885 and 13.5241; Calcium mobilization response, dose-response replicate data (Fig. 3E and 3F) (MRGPRX4 Y254A; concentration 1.69e-9 M): 15.8459 and 12.5447 and -5.6121 and 28.0313 and 20.8391 and 13.6468 and 20.2118 and 18.4284; Calcium mobilization response, dose-response replicate data (Fig. 3E and 3F) (MRGPRX4 Y254A; concentration 5.08e-9 M): 23.7689 and 10.8941 and -0.3301 and 18.6261 and 10.3273 and 20.8391 and 13.5241 and 11.5177; Calcium mobilization response, dose-response replicate data (Fig. 3E and 3F) (MRGPRX4 Y254A; concentration 1.52e-8 M): 15.8459 and 17.8267 and 10.564 and 26.3716 and 23.6054 and 16.9663 and 20.8805 and 19.7659; Calcium mobilization response, dose-response replicate data (Fig. 3E and 3F) (MRGPRX4 Y254A; concentration 4.57e-8 M): 19.1472 and 14.8556 and 8.913 and 19.1793 and 12.5403 and 20.2858 and 17.7596; Calcium mobilization response, dose-response replicate data (Fig. 3E and 3F) (MRGPRX4 Y254A; concentration 1.37e-7 M): 18.8171 and 31.3618 and 9.243 and 27.4781 and 26.9248 and 21.3924 and 19.3201; Calcium mobilization response, dose-response replicate data (Fig. 3E and 3F) (MRGPRX4 Y254A; concentration 4.12e-7 M): 18.4869 and 19.4773 and 3.301 and 26.9248 and 12.5403 and 32.4573 and 12.4094; Calcium mobilization response, dose-response replicate data (Fig. 3E and 3F) (MRGPRX4 Y254A; concentration 1.23e-6 M): 21.1279 and 18.1568 and 6.272 and 32.4573 and 21.9456 and 23.0521 and 14.8616 and 16.645; Calcium mobilization response, dose-response replicate data (Fig. 3E and 3F) (MRGPRX4 Y254A; concentration 3.7e-6 M): 15.5158 and 10.2338 and 7.923 and 31.3509 and 13.0936 and 21.9456 and 13.9699 and 13.3011; Calcium mobilization response, dose-response replicate data (Fig. 3E and 3F) (MRGPRX4 Y254A; concentration 1.11e-5 M): 7.923 and -1.651 and 1.651 and 24.1586 and 18.0728 and 21.9456 and 2.8237 and 17.9825; Calcium mobilization response, dose-response replicate data (Fig. 3E and 3F) (MRGPRX4 Y254A; concentration 3.33e-5 M): 5.942 and 0.9904 and -9.904 and 16.4131 and 10.3273 and 31.3509 and 7.059 and 4.161; Calcium mobilization response, dose-response replicate data (Fig. 3E and 3F) (MRGPRX4 Y254A; concentration 0.0001 M): 1.651 and -5.282 and 12.5403 and 18.0728 and 14.2001 and 2.601 and 7.951; calcium mobilization response (Fig. 3E and 3F dose-response) (MRGPRX4 W158A; 0.000333 M): -15.9549; calcium mobilization response (Fig. 3E and 3F dose-response) (MRGPRX4 W158A; 0.001 M): -17.9356; calcium mobilization response (Fig. 3E and 3F dose-response) (MRGPRX4 W158A; […]): -11.6633 |
| CC(C)c1cccc(C(C)C)c1OCOP(=O)(O)O [Fospropofol] | either greatly attenuated or abolished | disrupted calcium mobilization | disrupted calcium mobilization | either greatly attenuated or abolished | either greatly attenuated or abolished | 16 and 12 and 11 and 28 | 5 and 20 and 15 and 16 | disrupted calcium mobilization | – |
